Each structure is given as a SMILES string.

As to `CCCCOc1cccc(S(N)(=O)=O)c1`, the lipophilicity (logP) (as a rule, the decadic logarithm of the partition coefficient of the neutral form, usually between octanol and water) came out at 2.06. In the case of `N#Cc1cccc(S(N)(=O)=O)c1` it was 0.24; in that of `NC(=O)c1ccc(S(N)(=O)=O)cc1`, -0.83. In the case of `CCCCCCOc1ccc(S(N)(=O)=O)cc1[N+](=O)[O-]` it was 2.99; in that of `NS(=O)(=O)c1cccc(Br)c1`, 1.35; in that of `CC(=O)c1cccc(S(N)(=O)=O)c1`, 0.21.

On to `CS(=O)(=O)Nc1ccc(S(N)(=O)=O)cc1`, for which the logP is -0.4. `CC(=O)Nc1ccc(S(N)(=O)=O)cc1` registered a log partition coefficient (logP) of -0.04. The figure for `COc1cccc(S(N)(=O)=O)c1` is 0.53; for `CCCCOc1ccc(S(N)(=O)=O)cc1` it is 2.05. The figure for `NC(=O)c1cccc(S(N)(=O)=O)c1` is -0.84; for `NS(=O)(=O)c1ccc(-c2ccccc2)cc1` it is 2.24; for `NS(=O)(=O)c1cccc(I)c1` it is 1.58.

For the origin of these results see the OPERA property sets (Mansouri et al. 2018).
